Test results from patent US8933079B2, “Pyridone and pyridazinone derivatives as anti-obesity agents” (Boehringer Ingelheim International GmbH, priority 2012, dated 2015).

Assays:
human hepatocytes = experiment: Metabolic degradation in human hepatocytes (intrinsic clearance); format: in vitro ADME; conditions: human hepatocyte suspension, 1 μM test compound, 5% human serum, 6 h
Description: Determination of Metabolic Degradation in Human Hepatocytes for Compounds of the Invention
The metabolic degradation of the test compound is determined in a hepatocyte suspension. Hepatocytes (typically cryopreserved) are incubated in an appropriate buffer system (e.g. Dulbecco's modified eagle medium plus 3.5 μg glucagon/500 mL, 2.5 mg insulin/500 mL and 3.75 mg/500 mL hydrocortison) containing 5% human serum.
Following a (typically) 30 min preincubation in an incubator (37° C., 10% CO2), 5 μl of test compound solution (80 μM; from 2 mM in DMSO stock solution diluted 1:25 with medium) are added into 395 μl hepatocyte suspension (cell density in the range 0.25-5 Mio cells/mL, typically 1 Mio cells/mL; final concentration of test compound 1 μM, final DMSO concentration 0.05%). The cells are incubated for six hours (incubator, orbital shaker) and samples (25 μl) are taken at 0, 0.5, 1, 2, 4 and 6 hours. Samples are transferred into acetonitrile and pelleted by centrifugation (5 min). The supernatant is transferred to a new 96-deepwell plate, evaporated under nitrogen and resuspended.
Decline of parent compound is analyzed by HPLC-MS/MS.
CLint is calculated as follows CL_[…]=Dose/AUC=(CO/CD)/(AUD+clast/k)×1000/60. C0: initial concentration in the incubation [μM], CD: cell density of vital cells [10e6 cells/mL], AUD: area under the data [μM×h], clast: concentration of last data point [μM], k: slope of the regression line for parent decline [h−1].

hMCH-1R = hMCH-1R (Homo sapiens (Human), UniProt Q99705); experiment: MCH-1 receptor binding test (125I-MCH binding to hMCH-1R transfected cell membranes); conditions: competition with 100 pM 125I-MCH, membranes of CHO/Galpha16 cells stably transfected with hMCH-1R
Sequence of hMCH-1R (Q99705 whole entry): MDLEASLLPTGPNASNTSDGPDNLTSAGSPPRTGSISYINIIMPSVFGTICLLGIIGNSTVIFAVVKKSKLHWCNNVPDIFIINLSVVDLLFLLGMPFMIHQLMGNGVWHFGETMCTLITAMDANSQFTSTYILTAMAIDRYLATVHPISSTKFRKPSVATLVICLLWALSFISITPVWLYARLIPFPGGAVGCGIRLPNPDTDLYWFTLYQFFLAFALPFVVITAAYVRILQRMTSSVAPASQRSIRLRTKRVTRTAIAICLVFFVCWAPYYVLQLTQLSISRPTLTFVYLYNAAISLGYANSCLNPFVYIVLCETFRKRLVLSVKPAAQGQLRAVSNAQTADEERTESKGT

Structure (SMILES) | CLint (human hepatocytes) | IC50 (hMCH-1R)
COc1ccc(COc2cnn(CC(=O)c3ccc(CN(C)C)cc3)c(=O)c2)nc1 [Example 9.1c, 2-[2-(4-Dimethylaminomethyl-phenyl)-2-oxo-ethyl]-5-(5-methoxy-pyridin-2-ylmethoxy)-2H-pyridazin-3-one, reference compound] | 27 μL/min/10e6 cells | –
CN(C)Cc1ccc(C(=O)Cn2ccc(OCc3ccc(Cl)cn3)cc2=O)cc1 [Example 9.2 in WO2009/103478, reference compound] | 68.8 μL/min/10e6 cells | –
CN(C)Cc1ccc(C(=O)Cn2ncc(OCc3ccc(F)cn3)cc2=O)cc1 [Example 33.5 in WO2008/22979, reference compound] | 10.0 μL/min/10e6 cells | –
Cc1cc(CN(C)C)ccc1C(=O)Cn1ccc(OCc2ccccc2)cc1=O [Example 1.8, 4-Benzyloxy-1-[2-(4-dimethylaminomethyl-2-methyl-phenyl)-2-oxo-ethyl]-1H-pyridin-2-one] | 3.9 μL/min/10e6 cells | 0.017 µM
CN(C)Cc1ccc(C(=O)Cn2ccc(OCc3ccccc3)cc2=O)cc1 [Example 29.8 in WO2008/22979, reference compound] | 24.3 μL/min/10e6 cells | –
CN(C)Cc1ccc(C(=O)Cn2ncc(OCc3ccccc3)cc2=O)cc1 [Example 32.7 in WO2008/22979, reference compound] | 16.8 μL/min/10e6 cells | –
CN(C)Cc1ccc(C(=O)Cn2ccc(OCc3ccc(Br)cn3)cc2=O)cc1 [Example 11.2 in WO2009/103478, reference compound] | 66.1 μL/min/10e6 cells | –
Cc1cc(CN(C)C)ccc1C(=O)Cn1ccc(OCc2ccc(Cl)cn2)cc1=O [Example 3.9, 4-(5-Chloro-pyridin-2-ylmethoxy)-1-[2-(4-dimethylaminomethyl-2-methyl-phenyl)-2-oxo-ethyl]-1H-pyridin-2-one] | 13.8 μL/min/10e6 cells | 0.032 µM

Next, values leading:

CLint (human hepatocytes) | IC50 (hMCH-1R) | Structure (SMILES)
1.7 μL/min/10e6 cells | 0.05 µM | Cc1cc(CN(C)C)ccc1C(=O)Cn1ncc(OCc2ccc(F)cn2)cc1=O [Example 6.5]
11.5 μL/min/10e6 cells | 0.016 µM | Cc1cc(CN(C)C)ccc1C(=O)Cn1ncc(OCc2ccc(Br)cn2)cc1=O [Example 8.3, 5-(5-Bromo-pyridin-2-ylmethoxy)-2-[2-(4-dimethylaminomethyl-2-methyl-phenyl)-2-oxo-ethyl]-2H-pyridazin-3-one]
20.7 μL/min/10e6 cells | 0.017 µM | Cc1cc(CN(C)C)ccc1C(=O)Cn1ccc(OCc2ccc(Br)cn2)cc1=O [Example 4.1, 4-(5-Bromo-pyridin-2-ylmethoxy)-1-[2-(4-dimethylaminomethyl-2-methyl-phenyl)-2-oxo-ethyl]-1H-pyridin-2-one]
57.6 μL/min/10e6 cells | – | CN(C)Cc1ccc(C(=O)Cn2ncc(OCc3ccc(Br)cn3)cc2=O)cc1 [Example 12.2 in WO2009/103478, reference compound]
3.3 μL/min/10e6 cells | 0.028 µM | COc1ccc(COc2cnn(CC(=O)c3ccc(CN(C)C)cc3C)c(=O)c2)nc1 [Example 9.1, 2-[2-(4-Dimethylaminomethyl-2-methyl-phenyl)-2-oxo-ethyl]-5-(5-methoxy-pyridin-2-ylmethoxy)-2H-pyridazin-3-one]
4.8 μL/min/10e6 cells | 0.009 µM | Cc1cc(CN(C)C)ccc1C(=O)Cn1ncc(OCc2ccccc2)cc1=O [Example 5.2, 5-Benzyloxy-2-[2-(4-dimethylaminomethyl-2-methyl-phenyl)-2-oxo-ethyl]-2H-pyridazin-3-one]
